In PMC7582767, “Protective Effect of CXCR4 Antagonist CX807 in a Rat Model of Hemorrhagic Stroke” (International Journal of Molecular Sciences, 2020):

Target: T1, CXCR4 (C-X-C chemokine receptor type 4) (Homo sapiens, UniProt P61073)
T1 construct: purified membrane fractions of HEK293 cells overexpressing CXCR4
Test: […]CXCL12 radioligand displacement on CXCR4 membranes
Assay type: binding

T1 sequence (P61073 whole entry): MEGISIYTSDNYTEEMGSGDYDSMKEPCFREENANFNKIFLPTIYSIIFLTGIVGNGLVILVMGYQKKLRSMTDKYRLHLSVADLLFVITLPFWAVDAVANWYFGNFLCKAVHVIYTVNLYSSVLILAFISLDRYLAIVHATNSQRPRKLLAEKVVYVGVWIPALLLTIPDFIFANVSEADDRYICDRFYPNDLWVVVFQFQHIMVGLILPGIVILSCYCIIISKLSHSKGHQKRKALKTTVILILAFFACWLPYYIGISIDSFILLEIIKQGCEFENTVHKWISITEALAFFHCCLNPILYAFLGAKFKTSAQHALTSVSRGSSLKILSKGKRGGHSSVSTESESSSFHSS

- IC50: 65.4 ± 11.8 nM
Compound: Cc1cc(NC2CCN(C(=O)CCNCC(=O)O)CC2)nc(NCc2nc(CCCNCCCNC3CCCCC3)co2)n1 [CX807]
